Patent publication US20070128217A1 (priority 2003, published 2007)

Assays:
[1] = tested on: antibodies in sera from SARS patients (sera 1a, 1b, 2, 6, 37, 62, London, SARS-yellow, SARS-green); assay type: binding, human; parameters: Binding of serum 6 to linear peptides of protein X1 of SARS-CoV Urbani / Binding of serum 37 to linear peptides of protein X1 of SARS-CoV Urbani / Binding of serum 6 to looped/cyclic peptide (PEPSCAN-ELISA) / Binding of serum 37 to looped/cyclic peptide (PEPSCAN-ELISA) / Binding of serum 37 to looped/cyclic peptides of protein X1 of SARS-CoV Urbani / Binding of serum 6 to linear peptides of protein X2 / Binding of serum 37 to linear peptides of protein X2 / Binding of serum 37 to looped/cyclic peptides of protein X2 of SARS-CoV Urbani / Binding of serum 6 to linear peptides of protein M of SARS-CoV Urbani / Binding of serum 37 to linear peptides of protein M of SARS-CoV Urbani / Binding of serum 6 to looped/cyclic peptides of protein M of SARS-CoV Urbani / Binding of serum 37 to looped/cyclic peptides of protein M of SARS-CoV Urbani / Binding of serum 6 to linear peptides of protein X3 of SARS-CoV Urbani / Binding of serum 37 to linear peptides of protein X3 of SARS-CoV Urbani / Binding of serum 37 to looped/cyclic peptides of protein X3 of SARS-CoV Urbani / Binding of serum 6 to linear peptides of protein X4 of SARS-CoV Urbani / Binding of serum 37 to linear peptides of protein X4 of SARS-CoV Urbani / Binding of serum 37 to looped/cyclic peptides of protein X4 of SARS-CoV Urbani / Binding of serum 6 to linear peptides of protein X5 of SARS-CoV Urbani / Binding of serum 37 to linear peptides of protein X5 of SARS-CoV Urbani / Binding of serum 37 to looped/cyclic peptides of protein X5 of SARS-CoV Urbani / Binding of serum 6 to linear peptides of protein N of SARS-CoV Urbani / Binding of serum 37 to linear peptides of protein N of SARS-CoV Urbani / Binding of serum 6 to linear peptide (PEPSCAN-ELISA) / Binding of serum 1a to looped/cyclic peptides of protein N of SARS-CoV Urbani / Binding of serum 1b to looped/cyclic peptides of protein N of SARS-CoV Urbani / Binding of serum 2 to looped/cyclic peptides of protein N of SARS-CoV Urbani / Binding of serum 6 to looped/cyclic peptides of protein N of SARS-CoV Urbani / Binding of serum 37 to looped/cyclic peptides of protein N of SARS-CoV Urbani / Binding of serum 62 to looped/cyclic peptides of protein N of SARS-CoV Urbani / Binding of serum London to looped/cyclic peptides of protein N of SARS-CoV Urbani / Binding of serum SARS-green to looped/cyclic peptides of protein N of SARS-CoV Urbani: unit not given here
[2] = tested on: rabbit serum obtained by immunizing a rabbit with the SARS-CoV strain Frankfurt 1; assay type: binding; parameters: Binding of a rabbit serum to linear peptides / Binding of a rabbit serum to looped peptides / Rabbit serum linear peptides / Rabbit serum looped peptides / Binding of a rabbit serum to linear peptides of protein N of SARS-CoV Urbani (Rabbit serum linear peptides) / Binding of a rabbit serum to looped/cyclic peptides of protein N of SARS-CoV Urbani (Rabbit serum looped peptides): unit not given here
[3] = tested on: control sera (pooled serum of ten healthy LUMC hospital workers; commercial negative donor pooled serum from the Dutch bloodbank); assay type: binding, human; parameters: Binding of Control serum LUMC to linear peptides / Binding of Control serum Blood-bank to linear peptides / Binding of Control serum LUMC to looped peptides / Binding of Control Serum Blood-Bank to Looped peptides / Binding of Control serum LUMC to linear peptides of the protein M of SARS-CoV Urbani / Binding of Control serum Blood-bank to linear peptides of the protein M of SARS-CoV Urbani / Binding of Control serum LUMC to looped peptides of the protein M of SARS-CoV Urbani / Binding of Control Serum Blood-Bank to Looped peptides of the protein M of SARS-CoV Urbani: unit not given here

Sequence: GGALIARCWYLHEGH
- Binding of serum 1a to linear peptides of protein X5 of SARS-CoV Urbani [1]: 0.8
- Binding of serum 1a to looped/cyclic peptides of protein X5 of SARS-CoV Urbani [1]: 0.7
- Binding of serum 1b to linear peptides of protein X5 of SARS-CoV Urbani [1]: 0.7
- Binding of serum 1b to looped/cyclic peptides of protein X5 of SARS-CoV Urbani [1]: 0.6
- Binding of serum 2 to linear peptides of protein X5 of SARS-CoV Urbani [1]: 0.6
- Binding of serum 2 to looped/cyclic peptides of protein X5 of SARS-CoV Urbani [1]: 0.6
- Binding of serum 6 to linear peptides of protein X5 of SARS-CoV Urbani [1]: 0.8
- Binding of serum 6 to looped/cyclic peptides of protein X5 of SARS-CoV Urbani [1]: 0.4
- Binding of serum 37 to linear peptides of protein X5 of SARS-CoV Urbani [1]: 0.7
- Binding of serum 37 to looped/cyclic peptides of protein X5 of SARS-CoV Urbani [1]: 0.7
- Binding of serum 62 to linear peptides of protein X5 of SARS-CoV Urbani [1]: 0.8
- Binding of serum 62 to looped/cyclic peptides of protein X5 of SARS-CoV Urbani [1]: 0.7
- Binding of serum London to linear peptides of protein X5 of SARS-CoV Urbani [1]: 0.7
- Binding of serum London to looped/cyclic peptides of protein X5 of SARS-CoV Urbani [1]: 0.3
- Binding of serum SARS-green to linear peptides of protein X5 of SARS-CoV Urbani [1]: 0.7
- Binding of serum SARS-green to looped/cyclic peptides of protein X5 of SARS-CoV Urbani [1]: 0.7
- Binding of serum SARS-yellow to linear peptides of protein X5 of SARS-CoV Urbani [1]: 0.3
- Binding of serum SARS-yellow to looped/cyclic peptides of protein X5 of SARS-CoV Urbani [1]: 0.3
- Rabbit serum linear peptides [2]: 0.5
- Rabbit serum looped peptides [2]: 0.5
- Binding of Control Serum Blood-Bank to Looped peptides [3]: 0.6
- Binding of Control serum Blood-bank to linear peptides [3]: 0.5
- Binding of Control serum LUMC to linear peptides [3]: 0.4
- Binding of Control serum LUMC to looped peptides [3]: 0.6

Sequence: GIENATFFIFNKLVK
- Binding of serum 1a to linear peptides of protein X1 of SARS-CoV Urbani [1]: 0.6
- Binding of serum 1a to looped/cyclic peptides of protein X1 of SARS-CoV Urbani [1]: 0.6
- Binding of serum 1b to linear peptides of protein X1 of SARS-CoV Urbani [1]: 0.5
- Binding of serum 1b to looped/cyclic peptides of protein X1 of SARS-CoV Urbani [1]: 0.4
- Binding of serum 2 to linear peptides of protein X1 of SARS-CoV Urbani [1]: 0.5
- Binding of serum 2 to looped/cyclic peptides of protein X1 of SARS-CoV Urbani [1]: 0.5
- Binding of serum 6 to linear peptides of protein X1 of SARS-CoV Urbani [1]: 0.5
- Binding of serum 6 to looped/cyclic peptides of protein X1 of SARS-CoV Urbani [1]: 0.5
- Binding of serum 37 to linear peptides of protein X1 of SARS-CoV Urbani [1]: 0.6
- Binding of serum 37 to looped/cyclic peptides of protein X1 of SARS-CoV Urbani [1]: 0.6
- Binding of serum 62 to linear peptides of protein X1 of SARS-CoV Urbani [1]: 0.6
- Binding of serum 62 to looped/cyclic peptides of protein X1 of SARS-CoV Urbani [1]: 0.6
- Binding of serum London to linear peptides of protein X1 of SARS-CoV Urbani [1]: 0.3
- Binding of serum London to looped/cyclic peptides of protein X1 of SARS-CoV Urbani [1]: 0.2
- Binding of serum SARS-green to linear peptides of protein X1 of SARS-CoV Urbani [1]: 0.2
- Binding of serum SARS-green to looped/cyclic peptides of protein X1 of SARS-CoV Urbani [1]: 0.2
- Binding of serum SARS-yellow to linear peptides of protein X1 of SARS-CoV Urbani [1]: 0.5
- Binding of serum SARS-yellow to looped/cyclic peptides of protein X1 of SARS-CoV Urbani [1]: 0.5
- Binding of a rabbit serum to linear peptides [2]: 0.1
- Binding of a rabbit serum to looped peptides [2]: 0.6
- Binding of Control Serum Blood-Bank to Looped peptides [3]: 0.5
- Binding of Control serum Blood-bank to linear peptides [3]: 0.6
- Binding of Control serum LUMC to linear peptides [3]: 0.5
- Binding of Control serum LUMC to looped peptides [3]: 0.5

Sequence: GLMWLSYFVASFRLF
- Binding of serum 1a to linear peptides of protein M of SARS-CoV Urbani [1]: 0.7
- Binding of serum 1a to looped/cyclic peptides of protein M of SARS-CoV Urbani [1]: 0.6
- Binding of serum 1b to linear peptides of protein M of SARS-CoV Urbani [1]: 0.4
- Binding of serum 1b to looped/cyclic peptides of protein M of SARS-CoV Urbani [1]: 0.2
- Binding of serum 2 to linear peptides of protein M of SARS-CoV Urbani [1]: 0.4
- Binding of serum 2 to looped/cyclic peptides of protein M of SARS-CoV Urbani [1]: 0.6
- Binding of serum 6 to linear peptides of protein M of SARS-CoV Urbani [1]: 0.6
- Binding of serum 6 to looped/cyclic peptides of protein M of SARS-CoV Urbani [1]: 0.8
- Binding of serum 37 to linear peptides of protein M of SARS-CoV Urbani [1]: 0.5
- Binding of serum 37 to looped/cyclic peptides of protein M of SARS-CoV Urbani [1]: 0.5
- Binding of serum 62 to linear peptides of protein M of SARS-CoV Urbani [1]: 0.6
- Binding of serum 62 to looped/cyclic peptides of protein M of SARS-CoV Urbani [1]: 0.6
- Binding of serum London to linear peptides of protein M of SARS-CoV Urbani [1]: 0.4
- Binding of serum London to looped/cyclic peptides of protein M of SARS-CoV Urbani [1]: 0.3
- Binding of serum SARS-green to linear peptides of protein M of SARS-CoV Urbani [1]: 0.3
- Binding of serum SARS-green to looped/cyclic peptides of protein M of SARS-CoV Urbani [1]: 0.3
- Binding of serum SARS-yellow to linear peptides of protein M of SARS-CoV Urbani [1]: 0.1
- Binding of serum SARS-yellow to looped/cyclic peptides of protein M of SARS-CoV Urbani [1]: 0.7
- Rabbit serum linear peptides [2]: 0.2
- Rabbit serum looped peptides [2]: 0.2
- Binding of Control Serum Blood-Bank to Looped peptides of the protein M of SARS-CoV Urbani [3]: 0.7
- Binding of Control serum Blood-bank to linear peptides of the protein M of SARS-CoV Urbani [3]: 0.6
- Binding of Control serum LUMC to linear peptides of the protein M of SARS-CoV Urbani [3]: 0.2
- Binding of Control serum LUMC to looped peptides of the protein M of SARS-CoV Urbani [3]: 0.6
